For this assay, the system named is decay organisms. Briefly: Soil contact veneer exposure test: dip-treated Scots pine sapwood veneers in damp compost, pulled by hand weekly until failure. The following applies: for Half life for fungicide at 2% active ingredient (ai): Example 3; for Half life for fungicide at 2% active ingredient (ai) / Half life for fungicide at 2% ai: 2% single biocide; for average time for failure to occur, Quat Only: 0.36% active quaternary ammonium compound in deionised water. The text has this:
The present invention also provides a simple exposure test for evaluating the wood preserving abilities of candidate ingredients or compositions. This exposure test is based on the premise that small dimension timber test specimens tend to fail more quickly than larger ones in soil contact situations.
It is preferable that the thickness of the veneers be greater than 0.1 mm, as veneers of lesser thickness can often be pulled apart by hand without undergoing exposure to decay organisms. Veneers which are thicker than 0.4 may take an excessive amount of time to fail the exposure test. In one embodiment, the thickness of the veneers is about 0.2 mm and the wood is the sapwood of the Scots pine (Pinus sylvestris). Other woods and thicknesses can be used. […] An example of convenient width and length dimensions are 15×50 mm. However, width and length are not critical provided they are kept consistent within a test, although very large or small length or width dimensions may be difficult to handle.
Accordingly, the test of the present invention comprises testing the integrity of a veneer after exposure to a decay-inducing environment. In one embodiment, this environment is damp compost in which decay organisms are present and water is present at just above the water holding capacity of the compost. If desired, other media can be used, and the test can be conducted at water contents which are below, at, or above the water-holding capacity of the media.
In general, the integrity of the veneer is inversely related to the length of exposure to the decay promoting environment. The integrity of the veneer can be tested by applying a force to the veneer and noting whether or not the veneer breaks. Thus, if wood preservative agents are applied to the veneers, these veneers would be expected to withstand longer exposure to the environment without breaking compared to control veneers without breaking.
The force applied to the veneers is preferably a force which pulls the two ends in opposite directions. The force can be applied by the use of an instrument or manually. If there is significant decay the veneer will break, generally near the junction between the portion submerged in the decay accelerating medium and the portion exposed to air. If the force is applied manually, it is preferable that the same individual conduct the test at the various exposure time points.
The veneers were cut such that both late wood and early wood were present in each veneer. The following biocides were tested: dichlorophen, fenarimol, imazalil sulfate, and PHMB.
Test solutions were prepared and sets of veneers were dip treated such that there were 6 replicate veneers for each treatment under investigation. Additionally six veneers were dip treated in deionised water to act as water controls. […] Plastic containers (approximately 350×220 mm by at least 60 mm high) were part filled with John Innes Number 2 potting compost at a little above its water holding capacity. The veneers for a particular test were placed in six rows within a container such that approximately half the veneer was below the compost and half above. The veneers were placed in the compost such than those given a particular treatment were distributed throughout the container and were not grouped together. The containers, compost and veneers were weighed then incubated at about 30° C. and near 100% relative humidity in an incubator. Each week during the test the assembly was reweighed and deionised water added to bring it back to its original mass. After 3 weeks each veneer was examined in turn. It was held between the fingers at each end and pulled to see if it could be broken. If it could be pulled apart a failure was recorded. If the veneer was sound, this was recorded and the veneer was returned to its original position. After a further one week incubation all sound veneers were assessed again as described above, with the same person conducting the assessments.

[1] abbreviates: Example 8, solutions in IMS (alcohol), single biocide at 0.8%.
Setting [2] is: Example 8, solutions in IMS (alcohol), single biocide at 1.6%.
Setting [3] is: Example 7, solutions in acetone, single biocide at 0.8%.
[4] abbreviates: Example 7, solutions in acetone, single biocide at 1.6%.
Where [5] appears, read: Example 4, solutions in acetone.
Setting [6] is: Example 5, solutions in IMS (alcohol).
[7] abbreviates: Example 6, solutions in IMS (alcohol), single biocide at 0.8%.
Setting [8] is: Example 6, solutions in IMS (alcohol), single biocide at 1.6%.
Where [9] appears, read: Example 1, single biocide at 0.8% in treatment solution, 6 replicate veneers.

Values joined by “and” are separate entries in the source; they are usually repeats but may differ in a detail not shown here. Identical values can stand only once.

Take `O=C(Nc1ccccc1)c1ccccc1O` [Salicylanilide, 2-hydroxy-N-phenylbenzamide]: for the setting “solutions in IMS (alcohol)”, the “Half life for fungicide at 2% active ingredient (ai)” value amounted to 14.00 weeks. For the same molecule, the Calculated half life is, setting by setting: under setting [1], 4.83 weeks; under setting [2], 5.83 weeks.

For `N#Cc1c(Cl)c(Cl)c(Cl)c(C#N)c1Cl` [Chlorothalonil, 2,4,5,6-tetrachloro-1,3-benzenedicarbonitrile], the Calculated half life is 9.33 weeks under setting [3] and 12.33 weeks under setting [4].

`CCCC1COC(Cn2cncn2)(c2ccc(Cl)cc2Cl)O1` (stereo not drawn) [Propiconazole, 1-[[2-(2,4-dichlorophenyl)-4-propyl-1,3-dioxolan-2-yl]=methyl]-1H-1,2,4-triazole]: the “Half life for fungicide at 2% ai” value under setting [5] worked out at 6.33 weeks. Besides, the Calculated half life is 5.67 weeks under setting [3] and 6.00 weeks under setting [4].

`CCCCCCCCCCCCN(CCCN)CCCN` [Triameen, N,N-bis(3-aminopropyl) dodecylamine]: the “Half life for fungicide at 2% ai” value under setting [6] turned out to be 5.50 weeks.

As to “N,N-didecyl-N-methyl-poly(oxyethyl) ammonium propionate [Bardap 26]”, the “average time for failure to occur, Quat Only” value (Example 2) turned out to be 5.0 weeks. Also, the Calculated half life reads like this: under setting [7], 5.17 weeks; under setting [8], 6.00 weeks.

On to “Poly(hexamethylenebiguanide) hydrochloride [PHMB]”, for which the “average time for failure to occur” value under setting [9] is 4.8 weeks. For the same molecule, the Calculated half life is given as 5.00 weeks under setting [1] and 5.50 weeks under setting [2].

In the case of `OB(O)O` [Boric acid], the Calculated half life reads like this: under setting [1], 4.17 weeks; under setting [2], 4.50 weeks.

As to `CCCCCCCCCC[N+](C)(C)CCCCCCCCCC.[Cl-]` [DDAC, didecyl dimethyl ammonium chloride], the “average time for failure to occur, Quat Only” value (Example 2) is 4.2 weeks. Also, the “Half life for fungicide at 2% ai” value under setting [6] is 5.50 weeks. Further, the Calculated half life is on record as 5.17 weeks under setting [7] and 6.67 weeks under setting [8].

`CCCCCCCCn1sc(Cl)c(Cl)c1=O` [RH 287, 4,5-dichloro-2-n-octyl-3(2H)-isothiazolone]: the Calculated half life is, setting by setting: under setting [3], 10.00 weeks; under setting [4], 16.83 weeks.

Take `COC(=O)N(OC)c1ccccc1COc1ccn(-c2ccc(Cl)cc2)n1` [Pyraclostrobin, methyl N-{2-[1-(4-chlorophenyl)-1H-pyrazol-3-yloxymethyl]phenyl}(N-methoxy)carbamate]: the “Half life for fungicide at 2% ai” value under setting [6] is listed as 5.67 weeks.

As for `CC(C1CC1)C(O)(Cn1cncn1)c1ccc(Cl)cc1` (stereo not drawn) [Cyproconazole, α-(4-chlorophenyl)-α-(1-cyclopropylethyl)-=1H-1,2,4-triazol-1-ethanol], the “Half life for fungicide at 2% active ingredient (ai)” value (solutions in IMS (alcohol)) is reported as 6.67 weeks. Moreover, the Calculated half life runs as follows: under setting [3], 4.33 weeks; under setting [4], 4.50 weeks.

On to “1H-imidazole, 1-(2-(2,4-dichlorphenyl)-2-(2-propenyloxy)ethyl)-,sulfate [Imazalil Sulphate]”, for which, for the setting “Example 1, single biocide at 0.4% in treatment solution”, the “average time for failure to occur” value is 5.2 weeks. Under setting [6], the “Half life for fungicide at 2% ai” value is 7.83 weeks. The Calculated half life is, setting by setting: under setting [7], 7.00 weeks; under setting [8], 8.00 weeks.

Turning to `OC(c1ccc(Cl)cc1)(c1cncnc1)c1ccccc1Cl` (racemic) [Fenarimol, (±)-2,4′-dichloro-α-(pyrimidin-5-yl) benzhydryl alcohol], the “average time for failure to occur” value under setting [9] is ~7.2 weeks and 7.2 weeks. The “Half life for fungicide at 2% active ingredient (ai)” value (solutions in IMS (alcohol)) is 7.33 weeks.

Turning to `CCCCCCCCCCCCCN1CC(C)OC(C)C1` (stereo not drawn) [Tridemorph, 4-alkyl-2,6-dimethylmorpholine], for the setting “solutions in IMS (alcohol)”, the “Half life for fungicide at 2% active ingredient (ai)” value came out at 5.83 weeks.

Turning to `CC(Cc1ccc(C(C)(C)C)cc1)CN1C[C@@H](C)O[C@@H](C)C1` (stereo partly drawn) [Fenpropimorph, cis-4-[3-[4-(1,1-dimethylethyl)phenyl]-2-methylpropyl]-=2,6-dimethylmorpholine], where the note is “solutions in IMS (alcohol)”, the “Half life for fungicide at 2% active ingredient (ai)” value was determined as 6.17 weeks. In addition, the Calculated half life was 3.67 weeks under setting [3] and 4.33 weeks under setting [4].

On to “alkyl dimethyl benzyl ammonium chloride [BAC]”, for which the “Half life for fungicide at 2% ai” value under setting [6] worked out at 5.00 weeks. The Calculated half life under setting [1] was 5.00 weeks and the Calculated half life under setting [2] was 5.00 weeks.

In the case of `Oc1ccc(Cl)cc1Cc1cc(Cl)ccc1O` [Dichlorophen, 2,2′-methylenebis [4-chlorophenol]], the “average time for failure to occur” value is, setting by setting: (Example 1, 0.6% dichlorophen alone) 9.5 weeks; (Example 2, 0.60% dichlorophen, no quat) 5.7 weeks. In addition, the “Half life for fungicide at 2% active ingredient (ai)” value (solutions in IMS (alcohol)) came to 15.67 weeks. Further, the “Half life for fungicide at 2% ai” value under setting [5] came to 18.17 weeks and the “Half life for fungicide at 2% ai” value under setting [6] was determined as 17.00 weeks. Besides, the Calculated half life under setting [7] is 11.33 weeks; the Calculated half life under setting [8] is 14.50 weeks; the Calculated half life under setting [3] is listed as 8.67 weeks; the Calculated half life under setting [4] is recorded as 10.83 weeks; the Calculated half life under setting [1] is 7.83 weeks; the Calculated half life under setting [2] is 11.67 weeks.

The values above are taken from patent US20060217447A1, “Wood preservative formulations comprising dichlorophen” (priority 2005, published 2006).
